One molecule from PMC5322872, “ALKBH7 Variant Related to Prostate Cancer Exhibits Altered Substrate Binding” (PLoS Computational Biology, 2017) can be followed below.

Each structure is given as a SMILES string.

For the test, the target named is T1, ALKBH7 (Homo sapiens, UniProt Q9BT30).
T1 sequence (Q9BT30 17-215): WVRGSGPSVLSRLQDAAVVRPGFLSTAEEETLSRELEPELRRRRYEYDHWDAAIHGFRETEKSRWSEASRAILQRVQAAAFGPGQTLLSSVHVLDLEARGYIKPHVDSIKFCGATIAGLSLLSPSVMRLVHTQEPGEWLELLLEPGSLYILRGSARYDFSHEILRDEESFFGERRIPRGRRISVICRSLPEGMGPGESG
As to the kind of experiment: anaerobic difference UV-Vis spectroscopy (MLCT transition at […] nm). It counts as binding. The settings on record: 0.3 mM protein, 100 uM Fe(II), α-kg 2 mM in Fig 4 legend but 0.2 mM in Methods.

Take `O=C(O)CCC(=O)C(=O)O` [α-kg]: the “anaerobic difference UV-Vis spectroscopy (MLCT transition at 510 nm)” value is “The spectrum of WT ALKBH7·Fe(II)·α-kg minus that of ALKBH7·α-kg revealed the typical weak MLCT transitions”.
